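Assay format: 96-well plates, 48-hour exposure. GI50 is the concentration that inhibits growth by half.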 Calls of active or inactive are those of the source. Rule as the data show it: active = GI50 up to about 1.1 µM and inactive = higher.
Legend:
Test in all cases: NCI tumour cell line growth inhibition, 48 h
PC-3 = system: PC-3
SF-295 = system: SF-295
MOLT-4 = system: MOLT-4
UACC-62 = system: UACC-62
SF-539 = system: SF-539
K562 = system: K562
Hs-578T = system: Hs-578T
NCI-H522 = system: NCI-H522
OVCAR-5 = system: OVCAR-5
NCI/ADR-RES = system: NCI/ADR-RES
DU-145 = system: DU-145
SW-620 = system: SW-620
RPMI-8226 = system: RPMI-8226
HCC 2998 = system: HCC 2998
786-0 = system: 786-0
MDA-MB-231 = system: MDA-MB-231
IGROV-1 = system: IGROV-1
NCI-H460 = system: NCI-H460
SNB-75 = system: SNB-75
UACC-257 = system: UACC-257

Measured: GI50

CN1N=C(c2ccncc2)OC1c1ccccc1F (stereo not drawn)
inactive: PC-3 > 100 µM | SF-295 > 100 µM | MOLT-4 > 100 µM | UACC-62 > 100 µM | SF-539 > 100 µM | K562 > 100 µM | Hs-578T > 100 µM | NCI-H522 > 100 µM | OVCAR-5 > 100 µM | NCI/ADR-RES > 100 µM | DU-145 > 100 µM | SW-620 > 100 µM | RPMI-8226 > 100 µM | HCC 2998 > 100 µM | 786-0 > 100 µM | MDA-MB-231 > 100 µM | IGROV-1 > 100 µM | NCI-H460 > 100 µM

O=C1c2scc(-c3ccc(F)cc3)c2-n2cccc21
inactive: SNB-75 6.4 µM | UACC-257 71 µM | PC-3 29.9 µM | SF-295 26.2 µM | MOLT-4 27.9 µM | UACC-62 18.6 µM | Hs-578T 20.3 µM | NCI-H522 17.3 µM | OVCAR-5 > 100 µM | NCI/ADR-RES 33 µM | DU-145 88.1 µM | SW-620 27.4 µM | RPMI-8226 24.5 µM | HCC 2998 23.5 µM | 786-0 15.7 µM | MDA-MB-231 24.7 µM | IGROV-1 18.3 µM | NCI-H460 28 µM

CC(C)(C)OC(=O)NCCCCC1NC(=O)[C@@H]2Cc3c([nH]c4ccccc34)C(c3ccccc3)N2C1=O (stereo partly drawn)
inactive: UACC-257 35.6 µM | PC-3 33.8 µM | SF-295 22 µM | MOLT-4 15.6 µM | UACC-62 23.4 µM | K562 33.4 µM | Hs-578T 12.1 µM | NCI-H522 23 µM | OVCAR-5 53.8 µM | NCI/ADR-RES 35.1 µM | DU-145 49.2 µM | SW-620 54 µM | RPMI-8226 27.7 µM | HCC 2998 12.8 µM | 786-0 25.1 µM | MDA-MB-231 27.4 µM | IGROV-1 40.3 µM | NCI-H460 30.4 µM

O=C1/C(=C/c2ccccc2S)N=C(c2ccccc2)N1c1nc2ccc(Sc3ccccc3)cc2[nH]1
inactive: SNB-75 22.3 µM | UACC-257 23.6 µM | PC-3 32.2 µM | SF-295 27.4 µM | MOLT-4 35.4 µM | UACC-62 21.9 µM | K562 24.1 µM | Hs-578T 28.2 µM | NCI-H522 22.8 µM | OVCAR-5 32.4 µM | NCI/ADR-RES 22 µM | DU-145 34.9 µM | SW-620 29.9 µM | RPMI-8226 23.9 µM | HCC 2998 22.7 µM | 786-0 28.1 µM | MDA-MB-231 26.1 µM | IGROV-1 49.4 µM | NCI-H460 21.9 µM

From ChEMBL document CHEMBL1201862, “PubChem BioAssay data set” (2004)
